Measured values taken from patent US6737383B1, “Herbicidal oxadiazolidines” (priority 1999, dated 2004).

Legend:
[1] = test system: velvetleaf; test: Test B pre/postemergence velvetleaf; format: in vivo, Abutilon theophrasti
In short: (§1)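 Response is a visual 0-to-10 score relative to untreated plants, where 0 means no effect and 10 means complete control, taken twelve to sixteen days after application. Treatments went onto soil at planting and onto foliage of 1- to 4-leaf plants, using a surfactant-containing non-phytotoxic solvent.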

[2] = test system: smallflower flatsedge; test: Test B flood test smallflower flatsedge; format: in vivo, Cyperus difformis; settings: for Plant response rating, S. Flatsedge (0 to 10 scale, 0 is no effect, 10 is complete control): Pre-emergence; for Plant response rating, S. Flatsedge (0 to 10 scale, 0 is no effect, 10 is complete control) / S. Flatsedge plant response rating (0 to 10 scale, 0 is no effect, 10 is complete control): visual evaluation after twelve to sixteen days; for S. Flatsedge plant response rating (0 to 10 scale, 0 is no effect, 10 is complete control): under heading Pre-emergence
In short: (§2)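 Each value is a visual injury score relative to controls, with 10 meaning complete control and 0 no effect. Evaluation took place twelve to sixteen days after the 2-leaf-stage plants were treated and kept in the greenhouse.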

[3] = test system: duck salad; test: Test B flood test duck salad; format: in vivo, Heteranthera limosa; settings: for Plant response rating, Ducksalad (0 to 10 scale, 0 is no effect, 10 is complete control): Pre-emergence; for Plant response rating, Ducksalad (0 to 10 scale, 0 is no effect, 10 is complete control) / Ducksalad plant response rating (0 to 10 scale, 0 is no effect, 10 is complete control): visual evaluation after twelve to sixteen days; for Ducksalad plant response rating (0 to 10 scale, 0 is no effect, 10 is complete control): under heading Pre-emergence
In short: as §2

[4] = test system: soybean; test: Test B pre/postemergence soybean; format: in vivo, Glycine max
In short: as §1

[5] = Postemergence, Rate 62 g/ha, scale of 0 to 10, 0 is no effect, 10 is complete control
[6] = Postemergence, Rate 500 g/ha, scale of 0 to 10 where 0 is no effect and 10 is complete control
[7] = Preemergence, Rate 62 g/ha, scale 0 to 10 (0 no effect, 10 complete control)
[8] = Preemergence, Rate 125 g/ha, scale 0 to 10, 0 is no effect, 10 is complete control
[9] = Preemergence, Rate 500 g/ha, scale of 0 to 10 where 0 is no effect and 10 is complete control
[10] = Rate 250 g/ha, Postemergence, scale of 0 to 10 where 0 is no effect and 10 is complete control
[11] = Rate 62 g/ha, flood test species
[12] = Rate 125 g/ha, flood test species
[13] = Rate 250 g/ha, Pre-emergence (flood test species), scale 0 to 10, 0 is no effect, 10 is complete control
[14] = Rate 500 g/ha, Pre-emergence section of Table B, 0 to 10 scale (0 no effect, 10 complete control)
[15] = Postemergence, Rate 62 g/ha, scale 0 to 10, 0 is no effect, 10 is complete control
[16] = Postemergence, Rate 125 g/ha, scale of 0 to 10 where 0 is no effect and 10 is complete control
[17] = Postemergence, Rate 250 g/ha, scale of 0 to 10, 0 is no effect, 10 is complete control
[18] = Preemergence, Rate 125 g/ha, scale of 0 to 10 where 0 is no effect and 10 is complete control
[19] = Preemergence, Rate 250 g/ha, scale 0 to 10 (0 no effect, 10 complete control)
[20] = Preemergence, Rate 125 g/ha, 0 is no effect, 10 is complete control
[21] = Preemergence, Rate 250 g/ha, scale 0 to 10, 0 is no effect, 10 is complete control
[22] = Preemergence, Rate 500 g/ha, scale 0 to 10 (0 no effect, 10 complete control)
[23] = Rate 62 g/ha, Postemergence, scale of 0 to 10 where 0 is no effect and 10 is complete control
[24] = Rate 250 g/ha, Postemergence, scale 0 to 10, 0 is no effect, 10 is complete control
[25] = Rate 500 g/ha, Postemergence, scale 0 to 10
[26] = Postemergence (flood test species), Rate 125 g/ha, scale of 0 to 10 where 0 is no effect and 10 is complete control
[27] = Rate 62 g/ha, Postemergence section, flood test species, scale of 0 to 10 where 0 is no effect and 10 is complete control
[28] = Rate 250 g/ha, Postemergence (flood test), scale 0 to 10, 0 is no effect, 10 is complete control
[29] = Rate 500 g/ha, listed under Postemergence (flood test species), scale 0 to 10

**Q.** `CCCCCCn1c(=O)on(C(=O)N(c2ccccc2)C(C)C)c1=O` [Compound 558] was tested. Which “Velvetleaf plant response rating” value [1, 5] did it give?
**A.** The value was 0.

**Q.** What about the “Plant response rating, Velvetleaf” value [1, 6] of the same compound?
**A.** Its value is 2.

**Q.** What about the “Velvetleaf plant response rating” value [1, 7] of the same compound?
**A.** Its value is 0.

**Q.** And the “Velvetleaf plant response rating” value [1, 8]?
**A.** The value was 0.

**Q.** What about the “Velvetleaf plant response rating (0 to 10 scale)” value ([1]; Preemergence, Rate 250 g/ha) of the same compound?
**A.** The value was 0.

**Q.** What about the “Velvetleaf plant response rating” value [1, 9] of the same compound?
**A.** Its value is 0.

**Q.** What about the “Plant response rating, Velvetleaf” value [1, 10] of the same compound?
**A.** The value was 0.

**Q.** What about the “Plant response rating, S. Flatsedge (0 to 10 scale, 0 is no effect, 10 is complete control)” value [2, 11] of the same compound?
**A.** Its value is 0.

**Q.** What about the “S. Flatsedge plant response rating (0 to 10 scale, 0 is no effect, 10 is complete control)” value [2, 12] of the same compound?
**A.** The value was 0.

**Q.** What about the “S. Flatsedge plant response rating” value [2, 13] of the same compound?
**A.** Its value is 0.

**Q.** And the “S. Flatsedge plant response rating” value [2, 14]?
**A.** Its value is 0.

**Q.** And the “Plant response rating, Ducksalad (0 to 10 scale, 0 is no effect, 10 is complete control)” value [3, 11]?
**A.** The value was 0.

**Q.** And the “Ducksalad plant response rating (0 to 10 scale, 0 is no effect, 10 is complete control)” value [3, 12]?
**A.** Its value is 0.

**Q.** What about the “Ducksalad plant response rating” value [3, 13] of the same compound?
**A.** Its value is 0.

**Q.** And the “Ducksalad plant response rating” value [3, 14]?
**A.** Its value is 0.

**Q.** What about the “Soybean plant response rating” value [4, 5] of the same compound?
**A.** Its value is 3.

**Q.** What about the “Plant response rating, Soybean” value [4, 6] of the same compound?
**A.** Its value is 4.

**Q.** What about the “Soybean plant response rating” value [4, 7] of the same compound?
**A.** The value was 0.

**Q.** What about the “Soybean plant response rating” value [4, 8] of the same compound?
**A.** The value was 0.

**Q.** And the “Soybean plant response rating (0 to 10 scale)” value ([4]; Preemergence, Rate 250 g/ha)?
**A.** The value was 0.

**Q.** What about the “Soybean plant response rating” value [4, 9] of the same compound?
**A.** Its value is 0.

**Q.** What about the “Plant response rating, Soybean” value [4, 10] of the same compound?
**A.** The value was 4.

**Q.** Which results are given for `CCOC(Cn1c(=O)on(C(=O)N(c2ccc(F)cc2F)C(C)C)c1=O)OCC` [Compound 630]?
**A.** Plant response rating, Velvetleaf [1, 15]: 0; Plant response rating, Velvetleaf [1, 16]: 4; Velvetleaf plant response rating [1, 17]: 4; Velvetleaf plant response rating [1, 7]: 0; Velvetleaf plant response rating [1, 18]: 1; Plant response rating, Velvetleaf [1, 19]: 6; Plant response rating, Velvetleaf [1, 9]: 7; Plant response rating, S. Flatsedge (0 to 10 scale, 0 is no effect, 10 is complete control) [2, 11]: 0; S. Flatsedge plant response rating (0 to 10 scale, 0 is no effect, 10 is complete control) [2, 12]: 0; S. Flatsedge plant response rating [2, 13]: 0; S. Flatsedge plant response rating [2, 14]: 0; Plant response rating, Ducksalad (0 to 10 scale, 0 is no effect, 10 is complete control) [3, 11]: 0; Ducksalad plant response rating (0 to 10 scale, 0 is no effect, 10 is complete control) [3, 12]: 0; Ducksalad plant response rating [3, 13]: 0; Ducksalad plant response rating [3, 14]: 0; Plant response rating, Soybean [4, 15]: 4; Soybean plant response rating [4, 17]: 5; Soybean plant response rating [4, 7]: 0; Soybean plant response rating [4, 18]: 0; Plant response rating, Soybean [4, 19]: 0; Plant response rating, Soybean [4, 9]: 3

**Q.** Which “Velvetleaf plant response rating” value [1, 7] does the source give for `CN(C(=O)n1oc(=O)n(Cc2ccccc2)c1=O)c1ccccc1` [Compound 153] here?
**A.** Its value is 0.

**Q.** And the “Velvetleaf plant response rating (0 to 10 scale)” value [1, 20]?
**A.** Its value is 0.

**Q.** What about the “Velvetleaf plant response rating” value [1, 21] of the same compound?
**A.** The value was 0.

**Q.** What about the “Velvetleaf plant response rating” value [1, 22] of the same compound?
**A.** Its value is 0.

**Q.** And the “Velvetleaf plant response rating” value [1, 23]?
**A.** Its value is 0.

**Q.** What about the “Plant response rating, Velvetleaf” value [1, 24] of the same compound?
**A.** The value was 0.

**Q.** What about the “Velvetleaf plant response rating” value [1, 25] of the same compound?
**A.** The value was 0.

**Q.** What about the “S. Flatsedge plant response rating” value [2, 26] of the same compound?
**A.** The value was 0.

**Q.** What about the “S. Flatsedge plant response rating” value [2, 27] of the same compound?
**A.** The value was 0.

**Q.** And the “Plant response rating, S. Flatsedge” value [2, 28]?
**A.** Its value is 0.

**Q.** And the “S. Flatsedge plant response rating” value [2, 29]?
**A.** Its value is 0.

**Q.** And the “Ducksalad plant response rating” value [3, 26]?
**A.** The value was 0.

**Q.** What about the “Ducksalad plant response rating” value [3, 27] of the same compound?
**A.** Its value is 0.

**Q.** What about the “Plant response rating, Ducksalad” value [3, 28] of the same compound?
**A.** The value was 0.

**Q.** And the “Ducksalad plant response rating” value [3, 29]?
**A.** Its value is 0.

**Q.** What about the “Soybean plant response rating” value [4, 16] of the same compound?
**A.** The value was 0.

**Q.** What about the “Soybean plant response rating” value [4, 7] of the same compound?
**A.** Its value is 0.

**Q.** What about the “Soybean plant response rating (0 to 10 scale)” value [4, 20] of the same compound?
**A.** The value was 0.

**Q.** And the “Soybean plant response rating” value [4, 21]?
**A.** The value was 0.

**Q.** What about the “Soybean plant response rating” value [4, 22] of the same compound?
**A.** The value was 0.

**Q.** And the “Soybean plant response rating” value [4, 23]?
**A.** Its value is 0.

**Q.** What about the “Plant response rating, Soybean” value [4, 24] of the same compound?
**A.** Its value is 0.

**Q.** And the “Soybean plant response rating” value [4, 25]?
**A.** Its value is 0.
